The text below walks through data of patent US8999981B2, “3-amido-pyrrolo[3,4-C]pyrazole-5(1H, 4H,6H) carbaldehyde derivatives” (Pfizer Inc., priority 2007, dated 2015).

For the test, the target named is Protein Kinase C beta 2 (PKCβII) (Homo sapiens (Human), UniProt P05771). The test is described as follows: PKCβII coupled PK/LDH spectrophotometric kinase assay. The test is classed as biochemical. To be noted: apparent Ki, ATP-competitive model (Morrison equation); 0.1 mM ATP, 30° C.; read-out: PKCb Ki. As for the experimental part: This transfer is coupled to the oxidation of β-NADH through the activities of Pyruvate Kinase (PK) and Lactate Dehydrogenase (LDH). β-NADH conversion to NAD+ is monitored by the decrease in absorbance at 340 nm (e=6.22 cm^−1 mM^−1) using a Molecular Devices SPECTRA max PLUS spectrophotometer.
Sequence of Protein Kinase C beta 2 (PKCβII) (P05771 other isoform, or with tags, fused parts or gaps): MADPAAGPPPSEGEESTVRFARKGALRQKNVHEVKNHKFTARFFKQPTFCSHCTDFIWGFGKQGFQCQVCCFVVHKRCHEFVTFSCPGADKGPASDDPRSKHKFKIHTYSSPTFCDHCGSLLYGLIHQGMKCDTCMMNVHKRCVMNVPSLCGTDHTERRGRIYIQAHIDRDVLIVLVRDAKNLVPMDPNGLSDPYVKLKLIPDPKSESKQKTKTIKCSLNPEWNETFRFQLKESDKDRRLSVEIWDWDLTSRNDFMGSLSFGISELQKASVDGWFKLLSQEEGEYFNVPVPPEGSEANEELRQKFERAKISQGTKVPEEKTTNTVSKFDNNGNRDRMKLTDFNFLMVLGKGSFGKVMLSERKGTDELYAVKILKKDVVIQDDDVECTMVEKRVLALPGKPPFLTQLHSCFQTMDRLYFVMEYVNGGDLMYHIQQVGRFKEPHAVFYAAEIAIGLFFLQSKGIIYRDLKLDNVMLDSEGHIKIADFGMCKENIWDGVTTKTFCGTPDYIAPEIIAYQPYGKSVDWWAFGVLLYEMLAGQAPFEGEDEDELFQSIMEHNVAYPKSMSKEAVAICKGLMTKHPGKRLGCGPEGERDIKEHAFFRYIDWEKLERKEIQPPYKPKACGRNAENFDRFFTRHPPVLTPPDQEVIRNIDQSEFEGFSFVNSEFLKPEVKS
A typical assay was carried out on a 96-well, clear microtiter plate in a Molecular Devices spectrophotometer for 20 minutes at 30° C. in 0.1 mL of assay buffer containing 50 mM HEPES, pH 7.4, 5 nM PKC, 23 units of pyruvate kinase, 33 units of lactate dehydrogenase, 0.15 mM peptide, 0.1 mM ATP, 1 mM DTT, 4 mM PEP, 8 mM MgCl2, 0.3 mM NADH, 60 mM CaCl2, 10 mg/mL PS, 50 ng/mL PMA, 7.5% DMSO and from about 10,000 nM to 0.169 nM compound inhibitor. Stock solutions of 3-sn-phosphatidyl-L-serine (PS) and phorbol-12-myristate-13-acetate (PMA) were sonicated for 30 seconds just prior to addition to assay buffer and assays were initiated by the addition of 100 μM ATP.
Enzyme turnover values (kcat) were calculated according to […], where [E] is the total enzyme concentration. Enzyme inhibition constants (apparent K values) were determined by fitting initial velocities at variable inhibitor concentrations to a model for ATP competitive inhibition based on the Morrison equation). Morrison, J. F., Biochim. Biophys Acta 185: 269-286 (1969).

For the compound `C[C@H]1CN2CCC[C@H]2CN1C(=O)N1Cc2c(NC(=O)c3ccccn3)n[nH]c2C1(C)C` [Example A1, N-(6,6-Dimethyl-5-((3S,8aS)-3-methyl-octahydropyrrolo[1,2-a]pyrazine-2-carbonyl)-1,4,5,6-tetrahydropyrrolo[3,4-c]pyrazol-3-yl)picolinamide], the Ki worked out at 29.2 nM. Then `CC1(C)c2[nH]nc(NC(=O)c3cccc(Oc4ccccc4)c3)c2CN1C(=O)N1C[C@@H]2CCCN2C[C@@H]1Cc1ccccc1` [Example A3], with 36.8 nM; and `CN1CCN(C(=O)N2Cc3c(n[nH]c3NC(=O)c3cc4ccccc4s3)C2(C)C)[C@@H](Cc2ccccc2)C1` [Example A4], with 146 nM. Then `CN1CCN(C(=O)N2Cc3c(NC(=O)c4cccs4)n[nH]c3C2(C)C)[C@@H](Cc2ccccc2)C1` [Example A6], with 187 nM; and `CN1CCN(C(=O)N2Cc3c(NC(=O)c4cc5ccccc5o4)n[nH]c3C2(C)C)[C@@H](Cc2ccccc2)C1` [Example A7], with 124 nM; and `CN1CCN(C(=O)N2Cc3c(NC(=O)c4ccc5ccccc5n4)n[nH]c3C2(C)C)[C@@H](Cc2ccccc2)C1` [Example A8], with 78.1 nM. Then `CN1CCN(C(=O)N2Cc3c(NC(=O)c4cccc(Oc5ccccc5)c4)n[nH]c3C2(C)C)C(c2ccccc2)C1` (stereo not shown) [Example A9], with 159 nM. As for `CC1(C)c2[nH]nc(NC(=O)c3cccc(Oc4ccccc4)c3)c2CN1C(=O)N1CCNCC1c1ccccc1` (stereo not shown) [Example A10], the Ki came out at 55.9 nM.

In the case of `CC1(C)c2[nH]nc(NC(=O)c3ccc4ccccc4n3)c2CN1C(=O)N1CCN2CCCC2C1` (stereo not shown) [Example A11], the Ki stood at 73.9 nM. Then `CC(C)C[C@H]1CN2CCC[C@H]2CN1C(=O)N1Cc2c(NC(=O)c3ccc4ccccc4n3)n[nH]c2C1(C)C` [Example A12], with 103 nM; and `CC1(C)c2[nH]nc(NC(=O)c3ccc4ccccc4n3)c2CN1C(=O)N1C[C@@H]2CCCN2C[C@@H]1Cc1ccccc1` [Example A13], with 27.7 nM. With `CC1(C)c2[nH]nc(NC(=O)c3ccc4ccccc4n3)c2CN1C(=O)N1C[C@@H]2CCCN2C[C@@H]1Cc1ccccc1` [Example A14] the figure was 16.1 nM. With `CC1(C)c2[nH]nc(NC(=O)c3cccs3)c2CN1C(=O)N1CCN2CCCC2C1` (stereo not shown) [Example A15] the figure was 136 nM; with `CC1(C)c2[nH]nc(NC(=O)c3ccccc3)c2CN1C(=O)N1CCN2CCCC2C1` (stereo not shown) [Example A16], 113 nM.

`COc1cccc(C(=O)Nc2n[nH]c3c2CN(C(=O)N2C[C@@H]4CCCN4C[C@@H]2Cc2ccccc2)C3(C)C)c1` [Example A17]: the Ki was determined as 16.1 nM. With `COc1ccc(C(=O)Nc2n[nH]c3c2CN(C(=O)N2C[C@@H]4CCCN4C[C@@H]2Cc2ccccc2)C3(C)C)cc1` [Example A18], the Ki was 30.2 nM. As for `CC1(C)c2[nH]nc(NC(=O)c3ccccc3Cl)c2CN1C(=O)N1C[C@@H]2CCCN2C[C@@H]1Cc1ccccc1` [Example A19], the Ki is 91.4 nM. With `CC1(C)c2[nH]nc(NC(=O)c3cccc(F)c3F)c2CN1C(=O)N1C[C@@H]2CCCN2C[C@@H]1Cc1ccccc1` [Example A20] the figure was 50.8 nM; with `CC1(C)c2[nH]nc(NC(=O)c3cccc(Cl)c3)c2CN1C(=O)N1CCN2CCCC2C1` (stereo not shown) [Example A22], 28.9 nM; with `CC1(C)c2[nH]nc(NC(=O)c3cccc(Cl)n3)c2CN1C(=O)N1CCN2CCCC2C1` (stereo not shown) [Example A23], 55.9 nM.

For `CC1(C)c2[nH]nc(NC(=O)c3cccc(Cl)n3)c2CN1C(=O)N1CCN2CCCC2C1` (stereo not shown) [Example A24], the Ki worked out at 42.9 nM. Then `CC1(C)c2[nH]nc(NC(=O)c3ccc4ccncc4n3)c2CN1C(=O)N1C[C@@H]2CCCN2C[C@@H]1Cc1ccccc1` [Example A25], with 28.8 nM; and `Cn1ccnc1C(=O)Nc1n[nH]c2c1CN(C(=O)N1C[C@@H]3CCCN3C[C@@H]1Cc1ccccc1)C2(C)C` [Example A26], with 69.3 nM; and `C[C@H]1CN2CCC[C@H]2CN1C(=O)N1Cc2c(NC(=O)c3ccccc3)n[nH]c2C1(C)C` [Example A27], with 35.1 nM. Turning to `CCC[C@H]1CN2CCC[C@H]2CN1C(=O)N1Cc2c(NC(=O)c3ccccc3)n[nH]c2C1(C)C` [Example A28], the Ki was 96.1 nM. Then `C[C@@H]1CN(C(=O)N2Cc3c(NC(=O)c4ccccn4)n[nH]c3C2(C)C)C[C@H](C)N1` [Example A29], with 77.6 nM; and `C[C@H]1CN2CCC[C@H]2CN1C(=O)C1Cc2c(NC(=O)c3cc(Cl)cc(Cl)c3)n[nH]c2C1(C)C` (stereo partly shown) [Example A30], with 22.9 nM; and `C[C@H]1CN2CCC[C@H]2CN1C(=O)N1Cc2c(NC(=O)c3cccc(Cl)c3)n[nH]c2C1(C)C` [Example A31], with 21.3 nM. `C[C@H]1CN2CCC[C@H]2CN1C(=O)N1Cc2c(NC(=O)c3ccccc3F)n[nH]c2C1(C)C` [Example A32]: the Ki was 92.4 nM. In the case of `C[C@H]1CN2CCC[C@H]2CN1C(=O)N1Cc2c(NC(=O)c3cc(Cl)ccc3F)n[nH]c2C1(C)C` [Example A33], the Ki came to 82.7 nM. Then `C[C@H]1CN2CCC[C@H]2CN1C(=O)N1Cc2c(NC(=O)c3ccc(F)c(Cl)c3)n[nH]c2C1(C)C` [Example A34], with 21.9 nM.

As to `C[C@H]1CN2CCC[C@H]2CN1C(=O)N1Cc2c(NC(=O)c3cc(C(F)(F)F)ccc3F)n[nH]c2C1(C)C` [Example A35], the Ki was determined as 176 nM.

With `C[C@H]1CN2CCC[C@H]2CN1C(=O)N1Cc2c(NC(=O)c3ccc(Cl)c(Cl)c3)n[nH]c2C1(C)C` [Example A36], the Ki turned out to be 13.9 nM.

In the case of `C[C@H]1CN2CCC[C@H]2CN1C(=O)N1Cc2c(NC(=O)c3c(F)cccc3C(F)(F)F)n[nH]c2C1(C)C` [Example A37], the Ki amounted to 155 nM. On to `C[C@H]1CN2CCC[C@H]2CN1C(=O)N1Cc2c(NC(=O)c3c(F)cccc3Cl)n[nH]c2C1(C)C` [Example A38], for which the Ki is 181 nM. Then `COc1cccc(C(=O)Nc2n[nH]c3c2CN(C(=O)N2C[C@@H]4CCCN4C[C@@H]2C)C3(C)C)c1` [Example A39], with 47.4 nM. Then `COc1ccc(C(=O)Nc2n[nH]c3c2CN(C(=O)N2C[C@@H]4CCCN4C[C@@H]2C)C3(C)C)cc1` [Example A40], with 32.7 nM. Regarding `C[C@H]1CN2CCC[C@H]2CN1C(=O)N1Cc2c(NC(=O)c3ccc(OC(F)(F)F)cc3)n[nH]c2C1(C)C` [Example A41], the Ki amounted to 45.4 nM.

Regarding `Cc1cc(C(=O)Nc2n[nH]c3c2CN(C(=O)N2C[C@@H]4CCCN4C[C@@H]2C)C3(C)C)n(C)n1` [Example A42], the Ki came out at 67.9 nM. With `C[C@H]1CN2CCC[C@H]2CN1C(=O)N1Cc2c(NC(=O)c3cncs3)n[nH]c2C1(C)C` [Example A43] the figure was 135 nM.

Take `C[C@H]1CN2CCC[C@H]2CN1C(=O)N1Cc2c(NC(=O)c3cscn3)n[nH]c2C1(C)C` [Example A44]: the Ki was found to be 43.5 nM. For the compound `C[C@H]1CN2CCC[C@H]2CN1C(=O)N1Cc2c(NC(=O)c3cccc(OC(F)(F)F)c3)n[nH]c2C1(C)C` [Example A45], the Ki came out at 104 nM. With `CC1CN(C(=O)N2Cc3c(NC(=O)c4ccccn4)n[nH]c3C2(C)C)C(C)CN1` (stereo not shown) [Example A46] the figure was 36.2 nM; with `COc1ccc(C(=O)Nc2n[nH]c3c2CN(C(=O)N2C[C@@H]4CCCN4C[C@@H]2C)C3(C)C)nc1` [Example A47], 65.5 nM; with `COc1cc(C(=O)Nc2n[nH]c3c2CN(C(=O)N2C[C@@H]4CCCN4C[C@@H]2C)C3(C)C)ccc1Cl` [Example A48], 68.8 nM.

On to `C[C@H]1CN2CCC[C@H]2CN1C(=O)N1Cc2c(NC(=O)c3ccc(F)c(Cl)c3)n[nH]c2C1(C)C` [Example A49], for which the Ki was found to be 53.6 nM. With `CCc1ccc(C(=O)Nc2n[nH]c3c2CN(C(=O)N2C[C@@H]4CCCN4C[C@@H]2C)C3(C)C)nc1` [Example A50] the figure was 82.1 nM; with `Cc1cc(C)nc(C(=O)Nc2n[nH]c3c2CN(C(=O)N2C[C@@H]4CCCN4C[C@@H]2C)C3(C)C)c1` [Example A51], 20.9 nM. Consider `Cc1cc(C(=O)Nc2n[nH]c3c2CN(C(=O)N2C[C@@H]4CCCN4C[C@@H]2C)C3(C)C)nn1C` [Example A52], for which the Ki is 149 nM. In the case of `CCc1ccnc(C(=O)Nc2n[nH]c3c2CN(C(=O)N2C[C@@H]4CCCN4C[C@@H]2C)C3(C)C)c1` [Example A53], the Ki was found to be 66.3 nM. As for `C[C@H]1CN2CCC[C@H]2CN1C(=O)N1Cc2c(NC(=O)c3nc4ccccc4s3)n[nH]c2C1(C)C` [Example A54], the Ki worked out at 49.9 nM. Then `CC(C)c1csc(C(=O)Nc2n[nH]c3c2CN(C(=O)N2C[C@@H]4CCCN4C[C@@H]2C)C3(C)C)n1` [Example A55], with 177 nM; and `CC1(C)c2[nH]nc(NC(=O)c3ccccn3)c2CN1C(=O)N1C[C@@H]2CCCN2C[C@@H]1CC1CCCCC1` [Example A56], with 18.1 nM.

For `CC1(C)CN2CCC[C@H]2CN1C(=O)N1Cc2c(NC(=O)c3cccc(Cl)c3)n[nH]c2C1(C)C` [Example A57], the Ki is 87.4 nM. With `Cc1cc(C(=O)Nc2n[nH]c3c2CN(C(=O)N2C[C@@H]4CCCN4C[C@@H]2C)C3(C)C)nc(Cl)n1` [Example A58] the figure was 35.3 nM.
